In brackets after ≈: the same amount, converted by molar mass. Where a name gives a salt, the structure may show the parent alone. Read-outs that look alike come from different tables or passages of the source.
What was measured:
Experiment in all cases: Minimum Inhibitory Concentration Assay (broth microdilution, CLSI)
Format in all cases: cell-based
P. aeruginosa PA01 = settings: Pseudomonas aeruginosa
Experimental: (§1) Methods for dilution Antimicrobial Susceptibility TestS for Bacteria that Grow Aerobically; Approved Standard-Ninth Edition; M7-A9, Vol. 32 No. 2, Clinical and Laboratory Standards Institute, Wayne, Pa.; January 2012.
(§2) Performance Standards for Antimicrobial Susceptibility Testing; Twenty-Second Informational Supplement; M100-S22 Vol. 32 No. 3; Clinical and Laboratory Standards Institute, Wayne, Pa., January 2012.
(§3) Broth microdilution was performed in accordance with the CLSI recommended procedures for aerobic bacteria [CLSI, 2012].
(§4) Comparator compound stock solutions were prepared as recommended by CLSI [CLSI, 2012]. The stock solutions of novel GSK compounds were prepared at 512 mcg/mL by dissolving the compounds in dimethyl sulfoxide (DMSO) and diluting 1:10 with sterile water. The 512 mcg/mL stock was further serially diluted in the recommended broth media for the organisms being tested. Final DMSO concentration in test wells was less than 1%.
(§5) Microtitre plates were prepared using the Microlab STAR™ (Hamilton Co., Reno, Nev.) to add media (50 μL) and the Microlab AT Plus system (Hamilton Co., Reno, Nev.) to serially dilute the compounds (final concentration range 0.125 to 128 mcg/mL) and to add inoculum. A positive growth control well containing medium and the test isolate was included on each microtitre plate. Ten microliters of the test medium from the positive growth control well was plated to determine the purity of each test isolate. A microtitre mirror reader (Cooke Instruments, Ltd., England) was used to assist in determining the microdilution MIC endpoints. The MIC was determined as the lowest concentration of compound that inhibited visible growth of the organism.

E. coli 7623 = system: E. coli 7623
Experimental: as §1, §2, §3, §4, §5

K. pneumoniae 1161486 = system: K. pneumoniae 1161486
Experimental: as §1, §2, §3, §4, §5

[1] = strain PA01, broth microdilution, read-out: P. aeruginosa PA01 MIC
[2] = Escherichia coli, strain 7623, broth microdilution, read-out: E. coli 7623 MIC
[3] = Klebsiella pneumoniae, strain 1161486, broth microdilution, read-out: K. pneumoniae 1161486 MIC

Row | MIC (P. aeruginosa PA01; [1]) [µg/mL] | MIC (E. coli 7623; [2]) [µg/mL] | MIC (K. pneumoniae 1161486; [3]) [µg/mL] | SMILES | MIC (P. aeruginosa PA01; PA01, read-out: P. aeruginosa PA01 MIC (ug/mL)) [µg/mL] | MIC (E. coli 7623; Escherichia coli, 7623, read-out: E. coli 7623 MIC (ug/mL)) [µg/mL] | MIC (K. pneumoniae 1161486; Klebsiella pneumoniae, 1161486, read-out: K. pneumoniae 1161486 MIC (ug/mL)) [µg/mL]
1 | 4 (≈ 7.76 µM) | 0.5 (≈ 0.97 µM) | 0.5 (≈ 0.97 µM) | C[C@@](CCN1CCc2cc(-c3ccc(CN4CCOCC4)cc3)ccc2C1=O)(C(=O)NO)S(C)(=O)=O [Example 92, (2R)—N-hydroxy-2-methanesulfonyl-2-methyl-4-(6-{4-[(morpholin-4-yl)methyl]phenyl}-1-oxo-1,2,3,4-tetrahydroisoquinolin-2-yl)butanamide] | – | – | –
2 | 1 | 0.25 | 0.5 | CN(CCO)Cc1ccc(-c2ccc3c(=O)n(CC[C@](C)(C(=O)NO)S(C)(=O)=O)ccc3c2)c(F)c1.O=C(O)C(F)(F)F [Example 74, (2R)-4-[6-(2-fluoro-4-{[(2-hydroxyethyl)(methyl)amino]methyl}phenyl)-1-oxo-1,2-dihydroisoquinolin-2-yl]-N-hydroxy-2-methanesulfonyl-2-methylbutanamide] | – | – | –
3 | 2 (≈ 4.38 µM) | 0.063 (≈ 0.138 µM) | 0.25 (≈ 0.548 µM) | C[C@@](CCn1ccc2cc(-c3ccc4c(c3)COC4)ccc2c1=O)(C(=O)NO)S(C)(=O)=O [Example 57, (2R)-4-[6-(1,3-dihydro-2-benzofuran-5-yl)-1-oxo-1,2-dihydroisoquinolin-2-yl]-N-hydroxy-2-methanesulfonyl-2-methylbutanamide] | – | – | –
4 | 1 (≈ 2.18 µM) | < 0.03 | 0.125 (≈ 0.272 µM) | CCOc1ccc(-c2ccc3c(=O)n(CC[C@](C)(C(=O)NO)S(C)(=O)=O)cnc3c2)cc1 [Example 46, (2R)-4-[7-(4-ethoxyphenyl)-4-oxo-3,4-dihydroquinazolin-3-yl]-N-hydroxy-2-methanesulfonyl-2-methylbutanamide] | – | – | –
5 | 4 (≈ 7.57 µM) | 0.5 (≈ 0.946 µM) | 0.5 (≈ 0.946 µM) | Cc1c(-c2ccc(CN3CCOCC3)cc2)ccc2c(=O)n(CC[C@](C)(C(=O)NO)S(C)(=O)=O)cnc12 [Example 29, (2R)—N-hydroxy-2-methanesulfonyl-2-methyl-4-(8-methyl-7-{4-[(morpholin-4-yl)methyl]phenyl}-4-oxo-3,4-dihydroquinazolin-3-yl)butanamide] | – | – | –
6 | 1 (≈ 1.95 µM) | 0.25 (≈ 0.489 µM) | 0.5 (≈ 0.977 µM) | C[C@@](CCn1ccc2cc(-c3ccc(CN4CCCC4=O)cc3)ccc2c1=O)(C(=O)NO)S(C)(=O)=O [Example 81, (2R)—N-hydroxy-2-methanesulfonyl-2-methyl-4-(1-oxo-6-{4-[(2-oxopyrrolidin-1-yl)methyl]phenyl}-1,2-dihydroisoquinolin-2-yl)butanamide] | – | – | –
7 | 8 (≈ 16.4 µM) | 0.125 (≈ 0.257 µM) | 0.5 (≈ 1.03 µM) | CN(C)NCc1ccc(-c2ccc3c(=O)n(CC[C@](C)(C(=O)NO)S(C)(=O)=O)ccc3c2)cc1 [Example 79, (2R)-4-(6-{4-[(2,2-dimethylhydrazin-1-yl)methyl]phenyl}-1-oxo-1,2-dihydroisoquinolin-2-yl)-N-hydroxy-2-methanesulfonyl-2-methylbutanamide] | – | – | –
8 | 1 (≈ 1.92 µM) | 0.125 (≈ 0.241 µM) | 1 (≈ 1.92 µM) | COCCNCc1ccc(-c2ccc3c(=O)n(CC[C@](C)(C(=O)NO)S(C)(=O)=O)ccc3c2)c(F)c1 [Example 67, (2R)-4-[6-(2-fluoro-4-{[(2-methoxyethyl)amino]methyl}phenyl)-1-oxo-1,2-dihydroisoquinolin-2-yl]-N-hydroxy-2-methanesulfonyl-2-methylbutanamide] | – | – | –
9 | 0.5 (≈ 1.11 µM) | ≤ 0.032 | 0.125 (≈ 0.277 µM) | C[C@@](CCn1cnc2cc(-c3cccc(F)c3F)ccc2c1=O)(C(=O)NO)S(C)(=O)=O [Example 6, (R)-4-(7-(2,3-difluorophenyl)-4-oxoquinazolin-3(4H)-yl)-N-hydroxy-2-methyl-2-(methylsulfonyl)butanamide] | – | – | –
10 | 4 (≈ 8.45 µM) | 0.063 (≈ 0.133 µM) | 0.125 (≈ 0.264 µM) | CONCc1ccc(-c2ccc3c(=O)n(CC[C@](C)(C(=O)NO)S(C)(=O)=O)ccc3c2)cc1 [Example 78, (2R)—N-hydroxy-2-methanesulfonyl-4-(6-{4-[(methoxyamino)methyl]phenyl}-1-oxo-1,2-dihydroisoquinolin-2-yl)-2-methylbutanamide] | – | – | –
11 | 0.5 (≈ 1.21 µM) | 0.063 (≈ 0.152 µM) | 0.125 (≈ 0.302 µM) | C[C@@](CCn1ccc2cc(-c3ccccc3)ccc2c1=O)(C(=O)NO)S(C)(=O)=O [Example 56, (2R)—N-hydroxy-2-methanesulfonyl-2-methyl-4-(1-oxo-6-phenyl-1,2-dihydroisoquinolin-2-yl)butanamide] | – | – | –
12 | 8 (≈ 17.3 µM) | 0.25 (≈ 0.539 µM) | 1 (≈ 2.16 µM) | COc1ccc(-c2cc(F)c3c(=O)n(CC[C@](C)(C(=O)NO)S(C)(=O)=O)cnc3c2)cc1 [Example 16, (2R)-4-[5-fluoro-7-(4-methoxyphenyl)-4-oxo-3,4-dihydroquinazolin-3-yl]-N-hydroxy-2-methanesulfonyl-2-methylbutanamide] | – | – | –
13 | 4 (≈ 7.32 µM) | 0.063 (≈ 0.115 µM) | 0.5 (≈ 0.915 µM) | C[C@@](CCn1cnc2cc(-c3ccc(CCN4CCOCC4)cc3)c(F)cc2c1=O)(C(=O)NO)S(C)(=O)=O [Example 21, (2R)-4-(6-fluoro-7-{4-[2-(morpholin-4-yl)ethyl]phenyl}-4-oxo-3,4-dihydroquinazolin-3-yl)-N-hydroxy-2-methanesulfonyl-2-methylbutanamide] | – | – | –
14 | 1 (≈ 2.09 µM) | 0.063 (≈ 0.132 µM) | 1 (≈ 2.09 µM) | C[C@@](CCn1cnc2cc(-c3ccc(CCO)cc3F)ccc2c1=O)(C(=O)NO)S(C)(=O)=O [Example 45, (2R)-4-{7-[2-fluoro-4-(2-hydroxyethyl)phenyl]-4-oxo-3,4-dihydroquinazolin-3-yl}-N-hydroxy-2-methanesulfonyl-2-methylbutanamide] | – | – | –
15 | 2 (≈ 4.61 µM) | 0.063 (≈ 0.145 µM) | 0.25 (≈ 0.577 µM) | C[C@@](CCn1cnc2cc(-c3ccccc3)c(F)cc2c1=O)(C(=O)NO)S(C)(=O)=O [Example 31, (2R)-4-(6-fluoro-4-oxo-7-phenyl-3,4-dihydroquinazolin-3-yl)-N-hydroxy-2-methanesulfonyl-2-methylbutanamide] | – | – | –
16 | 4 (≈ 8.17 µM) | 0.5 (≈ 1.02 µM) | 1 (≈ 2.04 µM) | CN(C)Cc1ccc(-c2ccc3c(=O)n(CC[C@](C)(C(=O)NO)S(C)(=O)=O)cc(F)c3c2)cc1 [Example 85, (2R)-4-(6-{4-[(dimethylamino)methyl]phenyl}-4-fluoro-1-oxo-1,2-dihydroisoquinolin-2-yl)-N-hydroxy-2-methanesulfonyl-2-methylbutanamide] | – | – | –
17 | – | – | – | CN(C)c1ccc(-c2ccc3c(=O)n(CC[C@](C)(C(=O)NO)S(C)(=O)=O)cnc3c2)cc1 [Example 4, (R)-4-(7-(4-(dimethylamino)phenyl)-4-oxoquinazolin-3(4H)-yl)-N-hydroxy-2-methyl-2-(methylsulfonyl)butanamide Trifluoroacetic Acid Salt] | 8 | ≤ 0.03 | 0.25
18 | 2 (≈ 3.72 µM) | 0.125 (≈ 0.233 µM) | 0.25 (≈ 0.465 µM) | COCCNCc1ccc(-c2ccc3c(=O)n(CC[C@](C)(C(=O)NO)S(C)(=O)=O)cc(F)c3c2)c(F)c1 [Example 88, (2R)-4-[4-fluoro-6-(2-fluoro-4-{[(2-methoxyethyl)amino]methyl}phenyl)-1-oxo-1,2-dihydroisoquinolin-2-yl]-N-hydroxy-2-methanesulfonyl-2-methylbutanamide] | – | – | –
19 | 4 (≈ 7.27 µM) | 0.125 (≈ 0.227 µM) | 0.5 (≈ 0.908 µM) | C[C@@](CCn1cnc2cc(-c3ccc(CN4CCOCC4)cc3F)c(F)cc2c1=O)(C(=O)NO)S(C)(=O)=O [Example 26, (2R)-4-(6-fluoro-7-{2-fluoro-4-[(morpholin-4-yl)methyl]phenyl}4-oxo-3,4-dihydroquinazolin-3-yl)-N-hydroxy-2-methanesulfonyl-2-methylbutanamide] | – | – | –
20 | 8 (≈ 15.5 µM) | < 0.03 | 0.25 (≈ 0.484 µM) | CN(Cc1ccc(-c2cc3ncn(CC[C@](C)(C(=O)NO)S(C)(=O)=O)c(=O)c3cc2F)cc1)C1CC1 [Example 22, (2R)-4-[7-(4-{[cyclopropyl(methyl)amino]methyl}phenyl)-6-fluoro-4-oxo-3,4-dihydroquinazolin-3-yl]-N-hydroxy-2-methanesulfonyl-2-methylbutanamide] | – | – | –
21 | 1 (≈ 2.18 µM) | 0.125 (≈ 0.272 µM) | 1 (≈ 2.18 µM) | C[C@@](CCn1cnc2cc(-c3ccc(CCO)cc3)ccc2c1=O)(C(=O)NO)S(C)(=O)=O [Example 44, (2R)—N-hydroxy-4-{7-[4-(2-hydroxyethyl)phenyl]-4-oxo-3,4-dihydroquinazolin-3-yl}-2-methanesulfonyl-2-methylbutanamide] | – | – | –
22 | 0.5 (≈ 0.997 µM) | < 0.03 | 0.125 (≈ 0.249 µM) | C[C@@](CCn1ccc2cc(-c3ccc(CNC4CC4)cc3F)ccc2c1=O)(C(=O)NO)S(C)(=O)=O [Example 76, (2R)-4-(6-{4-[(cyclopropylamino)methyl]-2-fluorophenyl}-1-oxo-1,2-dihydroisoquinolin-2-yl)-N-hydroxy-2-methanesulfonyl-2-methylbutanamide] | – | – | –

Reference: patent US10781184B2, “Substituted benzazinones as antibacterial compounds” (GlaxoSmithKline Intellectual Property Development Limited, priority 2015, dated 2020)
